The values that follow come from patent publication US20170216240A1, “METHODS FOR MODULATING IKS CHANNEL ACTIVITY” (UNIVERSITY OF MIAMI, priority 2014, published 2017).

The target of one data set is T1, Kv7.1/KCNE1 (Homo sapiens, UniProt P51787).
T1 construct: expressed in transfected cells; host or cells: Xenopus laevis oocytes (cRNA co-injection)
Kind of data set: G(V) shift of Kv7.1 co-expressed with KCNE1 in Xenopus oocytes, two-electrode voltage-clamp. In kind it is cell-based. Conditions: 70 μM, pH 7.4; for ΔV1/2 ± SEM (G(V) shift): Kv7.1/E1. The source says:
(§1) cDNAs encoding human Kv7.1 (GEnBAnk Acc. No. NM_000218) and KCNE1 (NM_000219) were subcloned into the expression vectors pGEM or pXOOM, containing the 5′- and 3′-untranslated regions for Xenopus laevis β-globin as well as a poly-A segment (Jespersen et al., Biotechniques 32, 536-538, 540 (2002)). The truncated KCNE1 construct KCNE1ΔC was constructed by introducing a Stop codon at position 67 using Quikchange site-directed mutagenesis kit (Qiagen). The construct was fully sequenced to ensure proper mutation and absence of unwanted mutations (sequencing by Genewiz). The concatemers E1-Kv7.1-Kv7.1 and E1-Kv7.1 were provided by Dr. R. S. Kass at Columbia University, and can be prepared as described in Chan et al. Journal of General Physiology 132(2), 135-144, (2012)). The E1-Kv7.1 construct was made by linking the C-terminus of KCNE1 to the N-terminus of KCNQ1. The E1-Kv7.1-Kv7.1 construct was made by digesting the E1-Kv7.1 and a Kv7.1-Kv7.1 dimer with Xho1 and inserting the 2-kb fragment from the Kv7.1-Kv7.1 dimer digest into the cut KCNE1-Kv7.1 construct. The DNA encoding E1-Kv7.1-Kv7.1 and E1-Kv7.1 were in the pGEM vector and contained mutations to make the constructs suitable for voltage-clamp fluorometry recordings (Wang et al., J Biol Chem 273, 34069-34074 (1998)). The original KCNE1 and Kv7.1 sequences were therefore removed, one at a time, from the pGEM vector using different restriction enzymes (New England Biolabs). Sequences were separated using gel electrophoresis and harvested using Qiagen gel extraction kit. Corresponding wild type sequences were ligated into the construct using T4 Ligase (New England Biolabs). To ensure correct sequence the constructs were sequenced (Genewiz) and tested with different restriction enzymes in combination with gel electrophoresis to measure length and conformation of the gene. cRNA for injection of all constructs was prepared from linearized DNA using the T7 mMessage mMachine transcription kit (Ambion) according to the manufactures instructions. RNA quality was checked by gel electrophoresis, and RNA concentrations were quantified by UV spectroscopy.
(§2) Xenopus laevis oocytes were isolated and maintained (Bentzen, B. H. et al. Neuropharmacology 51, 1068-1077 (2006)). Approximately 50 nl cRNA (50 ng Kv7.1, KCNE1-Kv7.1-Kv7.1 or KCNE1-Kv7.1 alternatively 25 ng Kv7.1 together with 8 ng KCNE1 or KCNE1ΔC) was injected into each oocyte using a Nanojet microinjector (Drummond). Electrophysiological experiments were made 2-5 days after injection. Currents were measured at room temperature with the two-electrode voltage-clamp technique (CA-1B Dagan amplifier). Currents were sampled at 1-3.3 kHz, filtered at 500 Hz, and not leakage corrected. […] A control solution containing (in mM): 88 NaCl, 1 KCl, 15 HEPES, 0.4 CaCl2, and 0.8 MgCl2 was used. NaOH was added to adjust pH to 7.4, yielding a final sodium concentration of about 100 mM. The holding voltage was generally set to −80 mV. Activation curves were generally elicited by stepping to test voltages between −110 and +60 mV (2-4 s durations and 10 mV increments) followed by a tail voltage of −30 mV. For recordings of Kv7.1 at pH 9 and pH 10, the holding voltage was set to more negative voltages because the largest DHA-induced shifts induced channel opening already at −80 mV. […] Therefore, in arachidonyl amine experiments a brief hyperpolarizing pulse of 50 ms to −120 mV was introduced between the test voltage and the tail voltage to relief the channels from inactivation.
(§3) Test compounds were dissolved in 99.5% ethanol to a concentration of 100 mM and stored at −20° C. (Börjesson et al., Biophys J 95, 2242-2253 (2008); Börjesson et al., Biophys J 98, 396-403 (2010)). Shortly before experiments, test compounds were diluted in control solution to the desired test concentration. Pure control solution was added to the bath using a gravity-driven perfusion system. […]
(In two-electrode clamp one electrode senses voltage and the other passes current.)

For another data set, the target named is Kv7.1 (Homo sapiens, UniProt P51787). Kind of data set: G(V) shift of Kv7.1 expressed in Xenopus laevis oocytes, two-electrode voltage-clamp. As to conditions: Kv7.1, 70 μM, pH 7.4. It is filed as cell-based.
Excerpt: as §1, §2, §3

The mark [1] stands for this setting: listed as N-arachidonoyl taurine.

For the compound `CCCCC/C=C\C/C=C\C/C=C\C/C=C\CCCC(=O)NCCS(=O)(=O)O` [N-AT, N-arachidonoyl taurine], the “permeability coefficient (Papp)” value in the data set on Caco-2 cells is given as 22×10^−6 cms^−1. The “ΔV1/2 ± SEM (G(V) shift)” value on Kv7.1/KCNE1 is “about −30 mV”; at Kv7.1/KCNE1 (setting [1]) it was “about −30 mV”; at Kv7.1/KCNE1 (listed as N—AT) it was −27.0 ± 2.5 mV; at Kv7.1 (setting [1]) it was “about −30 mV”; on Kv7.1 (listed as N—AT), −26.2 ± 2.7 mV. The “G(V) shift of a representative cell (control curve shifted)” value at Kv7.1/KCNE1 (Kv7.1/KCNE1) is listed as −24 mV.
